# Experiments:
# Serotonin Induced Ulcer = test: Serotonin Induced Ulcer; assay type: in vivo, Wister strain male rats; parameters: unit not given here; conditions: 30 min before serotonin; for Ulcer Index: mean ± standard error (n=8)
# Method: Wister strain male rats (weighing 160 to 180 g) were used after one day's fasting. Serotonin creatinine sulfate (30 mg/ml) was subcutaneously administered to the rats on the back at a rate of 1 ml per kg of the body weight. The stomach was excised 5 hours after administration of serotonin, and the total area of hemorrhagic erosion was measured as an ulcer index. The test drug was intragastrically administered to the rats through an oral Zonde (probe) 30 minutes before administration of serotonin.
# (§1) Each numeral in the table indicates the mean ± standard error (n=8)
# (§2) All the test drugs (compounds of this invention) were intragastrically administered by an oral Zonde (probe).
# [1] = anti-ulcer activity used as index in fractionation; conditions: single (peak) component from HPLC fractionation of cinnamon extract
# Method: After washing with water, the resin was eluted using a 40 to 80% methanol aqueous solution as an eluent; the eluted fraction thus obtained was concentrated under reduced pressure and freeze dried to afford 148 g of a crude powder.
# 50 kg of cinnamon was treated with hot water at 60° to 100° C. for 1 to 2 hours, and the resultant extract was adsorbed onto 100 to 140 liters of the Amberlite XAD-2 resin. This resin was washed with water, then eluted using a 40 to 80% aqueous methanol solution as an eluent; the eluted fraction thus obtained was concentrated under reduced pressure and freeze dried to obtain 148 g of a crude powder.
# 200 kg of cinammon was treated with hot water at 60° to 100° C. for 1 to 2 hours, and the resultant extract was adsorbed onto 400 to 500 liters of the Amberlite XAD-2 resin. This resin was washed with water, then eluted with a 40 to 80% aqueous methanol solution as an eluent, the eluted fraction thus obtained was concentrated under reduced pressure and freeze-dried to obtain 590 g of a crude powder.
# Ethanol Induced Ulcer = test: Ethanol Induced Ulcer; assay type: in vivo, Wister strain male rats; parameters: Rate of Inhibition: unit not given here; conditions: 30 min before ethanol; for Ulcer Index: mean ± standard error (n=8)
# Method: Wister strain male rats (weighing 160-180 g) were fasted for one day and intragastrically administed with 50% (v/v) ethanol at a rate of 1 ml per rat. The test drug was intragastirically administered through an oral Zonde (probe) 30 minutes before administration of ethanol. One hour after administration of ethanol, the rats were poisoned to death by inhalation of chloroform, each stomach was excised, the major axis of hemorrhagic erosion on the stomach part was measured, and the total was made an ulcer index.
# as §1, §2
# Stress Ulcer = test: Stress Ulcer; assay type: in vivo, Wister strain male rats; conditions: immediately before stress; for Ulcer Index: mean ± standard error (n=8)
# Method: Wister strain male rats (weighing 230-250 g) were fasted for 2 days, then, while confined in a Tokyo University Pharmaceutics Laboratory model cage, they were immersed up to the xiphocosta and pulled up 6 hours later, to determine the ulcer index. That is, the rats were clubbed to death, the major axis of hemorrhagic erosion was measured, and the total was made the ulcer index. the test drug was intragastrically administered through an oral Zonde (probe) immediately before the loading of stress.
# as §1, §2
smiles,measurement,setting,value
CC1=C(/C=C/C(CO)CO)C(C)(CO)CCC1=O (stereo not drawn) [(IV-2)],Rate of Inhibition,Serotonin Induced Ulcer; 0.06 μg/kg intragastric,65.7
same,Ulcer Index,Serotonin Induced Ulcer; 0.06 μg/kg intragastric,4.6 ± 1.2
same,Rate of Inhibition,Serotonin Induced Ulcer; 6 μg/kg intragastric,76.9
same,Ulcer Index,Serotonin Induced Ulcer; 6 μg/kg intragastric,3.1 ± 1.2
"CC1=C(/C=C/C(CO)CO)C(C)(CO[C@@H]2O[C@H](CO)[C@@H](O)[C@H](O)[C@H]2O)CCC1=O (stereo partly drawn) [(IV-1), 2,4-dimethyl-3-(4-hydroxy-3-hydroxymethyl-1-butenyl)-4-(β-D-glucopyranosyl)oxymethyl-2-cyclohexen-1-one]",anti-ulcer activity among fractions,[1],manifesting the activity most strongly
same,Rate of Inhibition,Serotonin Induced Ulcer; 0.1 μg/kg intragastric,47.0
same,Ulcer Index,Serotonin Induced Ulcer; 0.1 μg/kg intragastric,7.1 ± 3.4
same,Rate of Inhibition,Serotonin Induced Ulcer; 1 μg/kg intragastric,51.5
same,Ulcer Index,Serotonin Induced Ulcer; 1 μg/kg intragastric,6.5 ± 2.5
"COc1cc(O[C@@H]2O[C@H](CO[C@@H]3OC[C@](O)(CO)[C@H]3O)[C@@H](O)[C@H](O)[C@H]2O)cc(OC)c1OC [(II-1), 3,4,5-trimethoxyphenol-β-D-apiofranosyl-(1→6)-β-D-glucopyranoside]",Rate of Inhibition,Ethanol Induced Ulcer; 0.15 μg/kg intragastric,11.1
same,Ulcer Index,Ethanol Induced Ulcer; 0.15 μg/kg intragastric,45.3 ± 14.0
same,Rate of Inhibition,Ethanol Induced Ulcer; 0.30 μg/kg intragastric,47.1
same,Ulcer Index,Ethanol Induced Ulcer; 0.30 μg/kg intragastric,27.0 ± 7.4
same,anti-ulcer activity among fractions,[1],manifesting the activity most strongly
same,Rate of Inhibition,Stress Ulcer; 0.15 μg/kg intragastric,23.7
same,Ulcer Index,Stress Ulcer; 0.15 μg/kg intragastric,21.6 ± 5.8
same,Rate of Inhibition,Stress Ulcer; 0.30 μg/kg intragastric,58.5
same,Ulcer Index,Stress Ulcer; 0.30 μg/kg intragastric,11.7 ± 3.0
same,Rate of Inhibition,Serotonin Induced Ulcer; 0.15 μg/kg intragastric,57.1
same,Ulcer Index,Serotonin Induced Ulcer; 0.15 μg/kg intragastric,7.5 ± 2.3
same,Rate of Inhibition,Serotonin Induced Ulcer; 0.30 μg/kg intragastric,70.9
same,Ulcer Index,Serotonin Induced Ulcer; 0.30 μg/kg intragastric,5.1 ± 1.9
"COc1cc(O)cc(OC)c1OC [(II-2), 3,4,5-trimethoxyphenol]",Rate of Inhibition,Serotonin Induced Ulcer; 0.05 μg/kg intragastric,26.7
same,Ulcer Index,Serotonin Induced Ulcer; 0.05 μg/kg intragastric,15.1 ± 4.6
same,Rate of Inhibition,Serotonin Induced Ulcer; 0.15 μg/kg intragastric,45.6
same,Ulcer Index,Serotonin Induced Ulcer; 0.15 μg/kg intragastric,11.2 ± 2.4
CC(=O)C=C=C1C(C)(C)CC(O[C@@H]2O[C@H](CO[C@@H]3OC[C@](O)(CO)[C@H]3O)[C@@H](O)[C@H](O)[C@H]2O)CC1(C)O (stereo partly drawn) [(III-1)],Rate of Inhibition,Ethanol Induced Ulcer; 0.075 μg/kg intragastric,51.6
same,Ulcer Index,Ethanol Induced Ulcer; 0.075 μg/kg intragastric,24.7 ± 10.6
same,Rate of Inhibition,Ethanol Induced Ulcer; 0.15 μg/kg intragastric,56.5
same,Ulcer Index,Ethanol Induced Ulcer; 0.15 μg/kg intragastric,22.2 ± 8.1
same,anti-ulcer activity among fractions,[1],manifesting the activity most strongly
same,Rate of Inhibition,Stress Ulcer; 0.075 μg/kg intragastric,41.3
same,Ulcer Index,Stress Ulcer; 0.075 μg/kg intragastric,16.6 ± 3.2
same,Rate of Inhibition,Stress Ulcer; 0.15 μg/kg intragastric,66.8
same,Ulcer Index,Stress Ulcer; 0.15 μg/kg intragastric,9.4 ± 2.3
same,Rate of Inhibition,Serotonin Induced Ulcer; 0.075 μg/kg intragastric,2.9
same,Ulcer Index,Serotonin Induced Ulcer; 0.075 μg/kg intragastric,17.0 ± 3.1
same,Rate of Inhibition,Serotonin Induced Ulcer; 0.15 μg/kg intragastric,75.4
same,Ulcer Index,Serotonin Induced Ulcer; 0.15 μg/kg intragastric,4.3 ± 1.1

# From patent US4888417A, “Therapeutic and prophylactic agents for peptic ulcer” (Green Cross Corporation, priority 1985, dated 1989)
